# Results taken from ChEMBL document CHEMBL4177750, “Imidazopyrazinones (IPYs): Non-Quinolone Bacterial Topoisomerase Inhibitors Showing Partial Cross-Resistance with Quinolones” (J Med Chem, 2018).
# Activity calls are given as the source filed them. The rule behind the calls is not given here.
# Assays:
# [1] = test system: Escherichia coli; assay: Antibacterial activity against ESBL producing Escherichia coli ATCC 35218 after 20 to 22 hrs; type: functional
# [2] = test system: Escherichia coli; assay: Antibacterial activity against Escherichia coli K-12 MG1655 after 20 to 22 hrs; conditions: K-12 substr. MG1655
# [3] = test system: Escherichia coli; assay: Antibacterial activity against tolC-deficient Escherichia coli K-12 MG1655 after 20 to 22 hrs; type: functional; conditions: K-12 substr. MG1655
# [4] = test system: Escherichia coli; assay: Antibacterial activity against hyperpermeable Escherichia coli D22 harboring LpxC mutant after 20 to 22 hrs
# [5] = test system: Pseudomonas aeruginosa; assay: Antibacterial activity against Pseudomonas aeruginosa PAO1 after 20 to 22 hrs; type: functional
# [6] = test system: Pseudomonas aeruginosa; assay: Antibacterial activity against Pseudomonas aeruginosa PAO750 harboring mexAB-oprM/mexCD-oprJ/mexEF-oprN/mexXY/opmH/mexJK/pscC deletion mutant after 20 to 22 hrs; type: functional
# [7] = test system: Staphylococcus aureus; assay: Antibacterial activity against methicillin-resistant Staphylococcus aureus ATCC 33592 after 20 to 22 hrs; type: functional
# [8] = test system: Staphylococcus aureus; assay: Antibacterial activity against methicillin-resistant Staphylococcus aureus ATCC 33592 after 20 to 22 hrs in presence of 50% calf fetal serum; type: functional, organism-based
# [9] = test system: Staphylococcus aureus; assay: Antibacterial activity against methicillin-resistant Staphylococcus aureus ATCC 33592 after 20 to 22 hrs in presence of 50% mouse serum; type: functional, organism-based
# [10] = test system: Escherichia coli; assay: Antibacterial activity against tolC-deficient fluoroquinolones-sensitive Escherichia coli JC7623 clinical isolate harboring wild type DNA gyrase after 20 to 22 hrs
# [11] = test system: Escherichia coli; assay: Antibacterial activity against tolC-deficient fluoroquinolones-resistant Escherichia coli W4753 clinical isolate harboring DNA gyrase S83L/D87N/ParC S80I/ParE S458A mutant after 20 to 22 hrs
# [12] = Drug metabolism in human liver microsomes at 5 uM after 20 mins in presence of NADPH; type: ADME, microsome; conditions: read-out: Drug metabolism
# [13] = Drug metabolism in mouse liver microsomes at 5 uM after 20 mins in presence of NADPH; type: ADME, microsome; conditions: read-out: Drug metabolism
# [14] = Drug metabolism in rat liver microsomes at 5 uM after 20 mins in presence of NADPH; type: ADME, microsome; conditions: read-out: Drug metabolism
# [15] = Metabolic stability in mouse plasma at 1 uM after 4 hrs; type: ADME, cell-free; conditions: read-out: Stability
# [16] = Metabolic stability in rat plasma at 1 uM after 4 hrs; type: ADME, cell-free; conditions: read-out: Stability
# [17] = test system: L5178Y; assay: Genotoxicity in mouse L5178Y cells after 23 hrs in absence of S9 fraction by micronucleus test; type: toxicity, cell-based
# [18] = test system: L5178Y; assay: Genotoxicity in mouse L5178Y cells after 3 hrs in presence of S9 fraction by micronucleus test; type: toxicity, cell-based; conditions: s9, 3 h
# [19] = molecular target: DNA gyrase (Escherichia coli, UniProt P0AES4+P0AES6)
# Description: Inhibition of Escherichia coli DNA gyrase A2B2 using relaxed pNO1 as substrate
SMILES,MIC [1] [µg/mL],MIC [2] [µg/mL],MIC [3] [µg/mL],MIC [4] [µg/mL],MIC [5] [µg/mL],MIC [6] [µg/mL],MIC [7] [µg/mL],Activity [8],Activity [9],MIC [10] [µg/mL],MIC [11] [µg/mL],"metabolised at 20 min, 5 µM [12] [%]","metabolised at 20 min, 5 µM [13] [%]","metabolised at 20 min, 5 µM [14] [%]","remaining at 4 h, 1 µM [15] [%]","remaining at 4 h, 1 µM [16] [%]",Activity [17],Activity [18],IC50 [19] [µM]
N[C@H]1CCN(c2cc3c(cc2F)c2nc[nH]c2c(=O)n3C2CC2)C1,16,64,0.5,16,64,0.5,16,Active,Active,–,–,–,–,–,–,–,–,–,–
O=c1c2ncnn2c2cc(F)c(-c3ccncc3)cc2n1C1CC1,32,> 64,< 0.125,32,> 64,32,16,–,–,–,–,–,–,–,–,–,–,–,–
N[C@H]1CCN(c2cc3c(cc2F)n2cncc2c(=O)n3C2CC2)C1,16,32,1,16,> 64,1,16,Active,Active,–,–,–,–,–,–,–,–,–,–
O=c1c2nccn2c2cc(F)c(-c3cccnc3)cc2n1C1CC1,16,32,< 0.125,8,> 64,4,64,–,–,–,–,–,–,–,–,–,–,–,–
CNc1cc(=O)n(C)c2c1/C(=C/c1ccncc1)c1ccccc1-2,–,–,–,–,–,–,–,–,–,1,2,–,–,–,–,–,–,–,–
O=c1c2nccn2c2cc(F)c(-c3ccncc3)cc2n1C1CC1,16,32,< 0.125,–,> 64,8,4,Active,Active,0.063,0.5,13,81,68,80 to 120,80 to 120,Toxic,Toxic,–
O=c1c2nccn2c2cc(F)c(-c3ccccn3)cc2n1C1CC1,> 64,> 64,4,> 64,> 64,> 64,> 64,–,–,–,–,–,–,–,–,–,–,–,–
N[C@H]1CCN(c2cc3c(cc2F)c(=O)n(N)c(=O)n3C2CC2)C1,1,1,< 0.125,0.5,32,< 0.125,2,–,–,–,–,–,–,–,–,–,–,–,–
Cn1cc(-c2ccc(NC(=O)Cc3ccc(Cl)cc3)cc2)n2ccnc2c1=O,> 32,> 32,1,32,> 32,> 32,> 32,–,–,0.125,4,–,–,–,–,–,–,–,6.35
O=c1c2cncn2c2cc(F)c(-c3ccncc3)cc2n1C1CC1,64,> 64,0.25,64,> 64,32,64,–,–,–,–,–,–,–,–,–,–,–,–
Cn1c(=O)c2nccn2c2/c(=C/c3ccncc3)c3ccccc3c21,> 64,> 64,< 0.125,> 64,> 64,> 64,> 64,–,–,0.016,0.25,–,–,–,–,–,–,–,–
